Experimental findings from patent publication US20080255169A1 (priority 2004, published 2008) are described below.

Broadly, the EC50 is the concentration giving half of the maximal effect. The term Emax denotes the size of the effect at its maximum, as opposed to the concentration needed. As a reminder, the melting point is the temperature, or range, at which the solid turns liquid.

Molecules are shown by their SMILES. Where two headings read alike, the source gives them in different places.

The subject of data set [1] is PC-3 cells. Nature of the data set: Cell invasion assay: invasion of PC-3 cells through Matrigel. Format: cell-based. To be noted: Homo sapiens, 72 hours. The text has this:
The overexpression regulates cell adhesion and migration to and invasion through the extracellular matrix. By blocking the interaction between extracellular matrix components like collagen and α2β1 it is possible to block cancer cell migration and invasion in vitro. Prostate cancer cells (PC-3) expressing α2β1 endogenously were used to test the in vitro anticancer potential of the inhibitors of the present invention.
Invasion of PC-3 cells (CRL-1435, ATCC) through Matrigel was studied using BD Biocoat invasion inserts (BD Biosciences). Inserts were stored at −20° C. Before the experiments inserts were allowed to adjust to the room temperature. 500 μl of serum free media (Ham's F12K medium, 2 mM L-glutamine, 1.5 g/l sodium bicarbonate) was added into the inserts and allowed to rehydrate at 37° C. in cell incubator for two hours. The remaining media was aspirated. PC-3 cells were detached, pelleted and suspended into serum free media (50 000 cells/500 μl). 300 μl of cell suspension was added into the insert in the absence (control) or presence of the inhibitor according to the pre-sent invention. Inserts were placed on the 24-well plates; each well containing 700 μl of cell culture media with 3% of fetal bovine serum as chemo-attractant. Cells were allowed to invade for 72 hours at 37° C. in cell incubator. Inserts were washed with 700 μl PBS, and fixed with 4% paraformaldehyde for 10 minutes. Paraformaldehyde was aspirated and cells were washed with 700 μl of PBS and inserts were stained by incubation with hematoxylin for 1 minute. The stain was removed by washing the inserts with 700 μl of PBS. Inserts were allowed to dry. Fixed invaded cells were calculated under the microscope. Invasion % was calculated as a comparison to the control.
Cell invasion assay is used as an in vitro cancer metastatis model. […] Some structures inhibit invasion even with submicromolar concentrations. […] In FIG. 2, the dose response of compound 161 in invasion assay is shown. Compound 161 gave the best EC50 value (0.3 μM) in invasion assay. Invasion assay was done with human prostata cancer cell line, PC-3.

Data set [2] deals with α2β1 integrin (Homo sapiens, UniProt P05556+P17301). Briefly: Cell adhesion assay. The format is cell-based. To be noted: for Emax: concentration not given, read-out: Emax in cell adhesion assay; for EC50: read-out: EC50 in cell adhesion assay.
Data set [3] addresses α2β1 integrin (Homo sapiens, UniProt P17301). Briefly: Cell adhesion assay. The format is cell-based.
[4] abbreviates: read-out: EC50 in invasion assay.

Sequence of α2β1 integrin (Homo sapiens, UniProt P05556+P17301) (P17301 30-1181): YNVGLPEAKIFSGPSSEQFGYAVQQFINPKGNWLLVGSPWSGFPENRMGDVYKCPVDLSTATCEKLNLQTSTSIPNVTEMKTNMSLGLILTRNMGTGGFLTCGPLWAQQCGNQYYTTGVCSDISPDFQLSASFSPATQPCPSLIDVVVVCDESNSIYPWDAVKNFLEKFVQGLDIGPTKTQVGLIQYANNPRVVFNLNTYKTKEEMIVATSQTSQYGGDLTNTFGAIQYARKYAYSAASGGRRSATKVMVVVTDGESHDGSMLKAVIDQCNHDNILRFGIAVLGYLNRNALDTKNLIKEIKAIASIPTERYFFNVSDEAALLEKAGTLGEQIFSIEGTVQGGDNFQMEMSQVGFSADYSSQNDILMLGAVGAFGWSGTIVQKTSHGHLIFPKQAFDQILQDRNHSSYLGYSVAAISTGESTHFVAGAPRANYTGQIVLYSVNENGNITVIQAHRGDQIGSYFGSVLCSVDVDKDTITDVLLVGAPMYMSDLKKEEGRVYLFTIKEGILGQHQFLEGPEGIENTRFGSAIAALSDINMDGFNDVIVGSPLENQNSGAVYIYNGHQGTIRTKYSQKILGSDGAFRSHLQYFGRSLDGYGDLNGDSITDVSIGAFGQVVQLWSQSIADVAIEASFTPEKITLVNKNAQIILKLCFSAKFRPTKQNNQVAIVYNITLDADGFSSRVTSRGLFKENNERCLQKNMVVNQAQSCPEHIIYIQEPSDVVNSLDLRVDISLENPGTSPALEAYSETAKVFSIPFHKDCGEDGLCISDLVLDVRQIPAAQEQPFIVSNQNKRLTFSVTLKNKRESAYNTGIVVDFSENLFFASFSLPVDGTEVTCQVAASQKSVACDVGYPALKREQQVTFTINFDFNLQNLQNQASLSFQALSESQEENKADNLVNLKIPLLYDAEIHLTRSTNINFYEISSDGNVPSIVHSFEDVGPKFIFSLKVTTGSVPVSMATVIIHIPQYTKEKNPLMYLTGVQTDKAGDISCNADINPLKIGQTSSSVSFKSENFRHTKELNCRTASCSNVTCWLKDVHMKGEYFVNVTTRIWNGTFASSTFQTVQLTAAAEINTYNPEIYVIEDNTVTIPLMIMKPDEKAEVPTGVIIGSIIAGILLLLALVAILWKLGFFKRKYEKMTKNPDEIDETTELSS
Sequence of α2β1 integrin (Homo sapiens, UniProt P05556+P17301) (P05556 21-798 partner): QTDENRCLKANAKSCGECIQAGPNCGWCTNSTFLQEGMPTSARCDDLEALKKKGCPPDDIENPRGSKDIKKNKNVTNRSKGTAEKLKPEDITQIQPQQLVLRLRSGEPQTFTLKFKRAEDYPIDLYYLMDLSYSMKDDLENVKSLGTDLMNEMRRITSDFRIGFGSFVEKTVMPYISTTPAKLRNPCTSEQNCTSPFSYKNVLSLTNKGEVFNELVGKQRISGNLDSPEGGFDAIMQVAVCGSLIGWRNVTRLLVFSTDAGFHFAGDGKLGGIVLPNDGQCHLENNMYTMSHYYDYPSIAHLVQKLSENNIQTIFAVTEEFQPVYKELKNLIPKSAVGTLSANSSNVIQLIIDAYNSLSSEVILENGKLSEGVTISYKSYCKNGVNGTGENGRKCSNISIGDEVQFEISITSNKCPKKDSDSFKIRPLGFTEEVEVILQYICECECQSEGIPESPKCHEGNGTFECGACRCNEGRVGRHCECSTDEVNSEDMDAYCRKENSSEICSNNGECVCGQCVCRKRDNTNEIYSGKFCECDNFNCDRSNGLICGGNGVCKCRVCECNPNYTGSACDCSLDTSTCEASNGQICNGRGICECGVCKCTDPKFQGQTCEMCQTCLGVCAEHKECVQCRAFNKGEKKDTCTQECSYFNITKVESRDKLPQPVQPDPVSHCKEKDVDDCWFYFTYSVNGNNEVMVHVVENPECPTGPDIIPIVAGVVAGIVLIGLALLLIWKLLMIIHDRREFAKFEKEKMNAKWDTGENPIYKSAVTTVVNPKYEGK
Sequence of α2β1 integrin (Homo sapiens, UniProt P17301) (P17301 30-1181): as the sequence (P17301 30-1181) above
Sequence of α2β1 integrin (Homo sapiens, UniProt P17301) (P05556 21-798 partner): as the sequence (P05556 21-798 partner) above

Take `Cc1cc2cc(NS(=O)(=O)c3ccc(Cl)cc3Cl)ccc2[nH]1` [Compound 131, 2,4-dichloro-N-(2-methyl-1H-indol-5-yl)-benzenesulfonamide]: in data set [1] (setting [4]), the EC50 was not above 1 µM. Moreover, in data set [2], the Emax is 58% and the EC50 came to 25 µM.

In the case of `O=S(=O)(Nc1ccc2cc[nH]c2c1)c1ccc(Cl)cc1Cl` [Compound 161, 2,4-dichloro-N-(1H-indol-6-yl)-benzenesulfonamide], the EC50 is 0.3 µM in data set [1] (dose response FIG. 2, read-out: EC50 value in invasion assay); not above 1 µM in data set [1] (setting [4]); 34 µM in data set [2]. Also, the Emax in data set [2] worked out at 82%.

Turning to `Cc1cc(F)ccc1-c1cccc(S(=O)(=O)Nc2ccc(N(C)C)cc2)c1` [Compound 222, N-[4-(dimethylamino)phenyl]-4′-fluoro-2′-methyl-1,1′-biphenyl-3-sulfonamide], in data set [1] (setting [4]), the EC50 is not above 1 µM. Moreover, in data set [2], the Emax worked out at 66% and the EC50 amounted to 15 µM.

Take `CN(C)c1ccc(N(C)S(=O)(=O)c2cccc(Br)c2)cc1` [Compound 281]: the EC50 is not above 1 µM in data set [1] (setting [4]) and 47 µM in data set [2]. Moreover, the Emax in data set [2] was found to be 78%.

Regarding `Cc1cc(C)n(-c2ccc(NS(=O)(=O)c3cccc(-c4ccc(F)cc4)c3)cc2)n1` [Compound 298], in data set [1] (setting [4]), the concentration for a half-maximal effect (EC50) is not above 1 µM. In addition, in data set [2], the Emax is 79% and the EC50 is 33 µM.

Take `COc1ccc(-c2cnn(-c3ccc(NS(=O)(=O)c4ccc(Cl)cc4)cc3)c2)cc1` [Compound 176]: the EC50 in data set [1] (setting [4]) was not above 1 µM. In data set [2], the Emax at 50 µM amounted to 59% and the EC50 turned out to be 17 µM.

For the compound `Cc1cc2cc(N(C)S(=O)(=O)c3ccc(Cl)cc3Cl)ccc2n1C` [Compound 242, 2,4-dichloro-N-(1,2-dimethyl-1H-indol-5-yl)-N-methyl-benzenesulfonamide], the EC50 in data set [1] (setting [4]) was not above 1 µM. Moreover, in data set [2], the Emax worked out at 70% and the EC50 came to 6 µM.

The compound `COc1ccc(-c2cccc(S(=O)(=O)Nc3ccc(N(C)C)cc3)c2)cc1OC` [Compound 102, 3′,4′-dimethoxy-biphenyl-3-sulphonic acid (4-dimethylamino-phenyl)-amide] yielded a melting point of 43 °C. Also, the “Emax in cell adhesion assay” value in data set [3] (concentration not given) came to 65%. In data set [2], the EC50 is 13 µM.

For the compound `Cn1ccc2cc(NS(=O)(=O)c3cccc(-c4ccc(F)cc4)c3)ccc21` [Compound 285, 4′-fluoro-biphenyl-3-sulfonic acid (1-methyl-1H-indol-5-yl)-amide], in data set [1] (setting [4]), the EC50 was not above 1 µM. For the same compound, in data set [2], the maximum response (Emax) at 50 µM worked out at 60% and the EC50 was 20 µM.

`CC(=O)c1ccc(-c2cccc(S(=O)(=O)Nc3ccc(N(C)C)cc3)c2)s1` [Compound 239, 3-(5-acetylthien-2-yl)-N-[4-(dimethylamino)phenyl]benzenesulfonamide]: the concentration for a half-maximal effect (EC50) in data set [1] (setting [4]) was not above 1 µM. For the same compound, in data set [2], the Emax at 50 µM worked out at 64% and the concentration giving a half-maximal response (EC50) stood at 24 µM.

For the compound `Cc1cc(C)nc(Nc2ccc(NS(=O)(=O)c3cccc(Br)c3)cc2)n1` [Compound 183], the EC50 in data set [1] (setting [4]) is not above 1 µM. For the same compound, in data set [2], the Emax amounted to 81% and the EC50 turned out to be 28 µM.

On to `COc1ccc(-c2cccc(S(=O)(=O)Nc3ccc(N(C)C)cc3)c2)cc1OC` [Compound 142, [4-(3′,4′-dimethoxy-biphenyl-3-sulfonylamino)-phenyl]-dimethylammonium; chloride], for which, in data set [2], the Emax stood at 77% and the EC50 was 20 µM.

In the case of `Cc1ccc(C)n1-c1ccc(NS(=O)(=O)c2ccc(Cl)cc2Cl)cc1` [Compound 213], in data set [2], the maximum response (Emax) at 50 µM is 71% and the EC50 was determined as 25 µM.

Regarding `Cc1cc(F)ccc1-c1cccc(S(=O)(=O)N(C)c2ccc(N(C)C)cc2)c1` [Compound 321], in data set [2], the Emax is 55% and the EC50 stood at 6.3 µM.

Turning to `COc1ccc(NS(=O)(=O)c2cccc(-c3ccc(F)cc3)c2)cc1` [Compound 250], in data set [2], the maximal response (Emax) is 89% and the EC50 worked out at 31 µM.

Take `Cc1[nH]c2ccc(NS(=O)(=O)c3ccc(Cl)cc3Cl)cc2c1C` [Compound 210]: the “EC50 in cell adhesion assay” value in data set [3] was “dd could not be detected”. Further, the Emax at 50 µM in data set [2] stood at 80%.

As for `CC(C)(C)c1cc2cc(NS(=O)(=O)c3cccc(-c4ccc(F)cc4)c3)ccc2[nH]1` [Compound 291], in data set [2], the Emax turned out to be 50% and the EC50 was found to be 32 µM.

As for `CN(C)c1ccc(NS(=O)(=O)c2cccc(-c3ccc(F)cc3)c2)cc1` [Compound 119, N-[4-(dimethylamino)phenyl]-4′-fluoro-1,1′-biphenyl-3-sulphonamide], the melting point lay within 158 to 160 °C. Also, in data set [2], the Emax was 70% and the EC50 came out at 3 µM.
